Reference: ChEMBL document CHEMBL5331110, “Eyes on Topical Ocular Disposition: The Considered Design of a Lead Janus Kinase (JAK) Inhibitor That Utilizes a Unique Azetidin-3-Amino Bridging Scaffold to Attenuate Off-Target Kinase Activity, While Driving Potency and Aqueous Solubility” (J Med Chem, 2023)
Converted amounts (≈) assume the structure as drawn.

What was measured:
[1] = molecular target: Tyrosine-protein kinase JAK1 (Homo sapiens, UniProt P23458); test: Inhibition of JAK1 (unknown origin) incubated for 45 to 120 mins in presence of ATP by Kinase-Glo luminescent assay
[2] = molecular target: Non-receptor tyrosine-protein kinase TYK2 (Homo sapiens, UniProt P29597)
Description: Inhibition of TYK2 (unknown origin) incubated for 45 to 120 mins in presence of ATP by Kinase-Glo luminescent assay

[3] = molecular target: Tyrosine-protein kinase JAK2 (Homo sapiens, UniProt O60674)
Description: Inhibition of JAK2 (unknown origin) incubated for 45 to 120 mins in presence of ATP by Kinase-Glo luminescent assay

[4] = molecular target: T1, Tyrosine-protein kinase JAK3 (Homo sapiens, UniProt P52333)
T1 sequence (P52333 whole entry): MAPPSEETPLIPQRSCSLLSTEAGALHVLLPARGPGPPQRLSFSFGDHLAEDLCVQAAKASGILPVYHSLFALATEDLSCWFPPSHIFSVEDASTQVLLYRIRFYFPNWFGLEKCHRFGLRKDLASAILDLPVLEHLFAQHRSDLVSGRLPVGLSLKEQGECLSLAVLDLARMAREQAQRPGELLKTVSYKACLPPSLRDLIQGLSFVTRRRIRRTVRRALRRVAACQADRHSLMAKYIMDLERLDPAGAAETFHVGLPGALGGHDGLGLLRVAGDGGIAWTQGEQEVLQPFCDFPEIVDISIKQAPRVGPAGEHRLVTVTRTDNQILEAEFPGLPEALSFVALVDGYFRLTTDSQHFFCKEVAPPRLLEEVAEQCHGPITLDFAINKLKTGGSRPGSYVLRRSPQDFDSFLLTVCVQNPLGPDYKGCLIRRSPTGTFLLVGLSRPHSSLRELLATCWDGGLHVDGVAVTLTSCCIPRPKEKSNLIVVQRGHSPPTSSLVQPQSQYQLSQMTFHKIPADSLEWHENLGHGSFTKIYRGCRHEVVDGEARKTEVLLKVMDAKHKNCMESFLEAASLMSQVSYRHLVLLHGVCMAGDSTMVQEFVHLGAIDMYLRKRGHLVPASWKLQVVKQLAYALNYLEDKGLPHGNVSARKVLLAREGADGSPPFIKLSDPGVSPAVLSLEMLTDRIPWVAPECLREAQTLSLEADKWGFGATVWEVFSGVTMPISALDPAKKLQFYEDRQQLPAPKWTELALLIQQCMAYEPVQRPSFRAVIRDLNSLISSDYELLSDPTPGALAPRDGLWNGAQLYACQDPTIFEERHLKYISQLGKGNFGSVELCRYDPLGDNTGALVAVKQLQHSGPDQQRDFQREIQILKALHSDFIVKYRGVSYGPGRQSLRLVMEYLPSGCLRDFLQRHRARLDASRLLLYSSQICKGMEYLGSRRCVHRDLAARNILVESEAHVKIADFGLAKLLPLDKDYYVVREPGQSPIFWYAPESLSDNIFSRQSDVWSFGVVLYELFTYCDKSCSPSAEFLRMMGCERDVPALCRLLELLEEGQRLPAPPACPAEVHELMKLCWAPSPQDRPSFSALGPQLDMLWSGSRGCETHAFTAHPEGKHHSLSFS
Description: Inhibition of JAK3 (unknown origin) incubated for 45 to 120 mins in presence of ATP by Kinase-Glo luminescent assay

Aurora kinase B = Aurora kinase B (Homo sapiens, UniProt Q96GD4)
Description: Inhibition of AURKB (unknown origin) incubated for 45 to 120 mins in presence of ATP by Kinase-Glo luminescent assay

[5] = molecular target: Tyrosine-protein kinase ABL1 (Homo sapiens, UniProt P00519)
Description: Inhibition of ABL1 (unknown origin) incubated for 45 to 120 mins in presence of ATP by Kinase-Glo luminescent assay

[6] = molecular target: Glycogen synthase kinase-3 beta (Homo sapiens, UniProt P49841)
Description: Inhibition of GSK3B (unknown origin) incubated for 45 to 120 mins in presence of ATP by Kinase-Glo luminescent assay

[7] = Intrinsic aqueous solubility of the compound in citrate buffer at pH 6 by HPLC-UV/MS analysis
[8] = Dissociation constant, pKa of the compound by potentiometric titration method
[9] = molecular target: Vascular endothelial growth factor receptor 2 (Homo sapiens, UniProt P35968)
Chain of Vascular endothelial growth factor receptor 2 (P35968 whole entry): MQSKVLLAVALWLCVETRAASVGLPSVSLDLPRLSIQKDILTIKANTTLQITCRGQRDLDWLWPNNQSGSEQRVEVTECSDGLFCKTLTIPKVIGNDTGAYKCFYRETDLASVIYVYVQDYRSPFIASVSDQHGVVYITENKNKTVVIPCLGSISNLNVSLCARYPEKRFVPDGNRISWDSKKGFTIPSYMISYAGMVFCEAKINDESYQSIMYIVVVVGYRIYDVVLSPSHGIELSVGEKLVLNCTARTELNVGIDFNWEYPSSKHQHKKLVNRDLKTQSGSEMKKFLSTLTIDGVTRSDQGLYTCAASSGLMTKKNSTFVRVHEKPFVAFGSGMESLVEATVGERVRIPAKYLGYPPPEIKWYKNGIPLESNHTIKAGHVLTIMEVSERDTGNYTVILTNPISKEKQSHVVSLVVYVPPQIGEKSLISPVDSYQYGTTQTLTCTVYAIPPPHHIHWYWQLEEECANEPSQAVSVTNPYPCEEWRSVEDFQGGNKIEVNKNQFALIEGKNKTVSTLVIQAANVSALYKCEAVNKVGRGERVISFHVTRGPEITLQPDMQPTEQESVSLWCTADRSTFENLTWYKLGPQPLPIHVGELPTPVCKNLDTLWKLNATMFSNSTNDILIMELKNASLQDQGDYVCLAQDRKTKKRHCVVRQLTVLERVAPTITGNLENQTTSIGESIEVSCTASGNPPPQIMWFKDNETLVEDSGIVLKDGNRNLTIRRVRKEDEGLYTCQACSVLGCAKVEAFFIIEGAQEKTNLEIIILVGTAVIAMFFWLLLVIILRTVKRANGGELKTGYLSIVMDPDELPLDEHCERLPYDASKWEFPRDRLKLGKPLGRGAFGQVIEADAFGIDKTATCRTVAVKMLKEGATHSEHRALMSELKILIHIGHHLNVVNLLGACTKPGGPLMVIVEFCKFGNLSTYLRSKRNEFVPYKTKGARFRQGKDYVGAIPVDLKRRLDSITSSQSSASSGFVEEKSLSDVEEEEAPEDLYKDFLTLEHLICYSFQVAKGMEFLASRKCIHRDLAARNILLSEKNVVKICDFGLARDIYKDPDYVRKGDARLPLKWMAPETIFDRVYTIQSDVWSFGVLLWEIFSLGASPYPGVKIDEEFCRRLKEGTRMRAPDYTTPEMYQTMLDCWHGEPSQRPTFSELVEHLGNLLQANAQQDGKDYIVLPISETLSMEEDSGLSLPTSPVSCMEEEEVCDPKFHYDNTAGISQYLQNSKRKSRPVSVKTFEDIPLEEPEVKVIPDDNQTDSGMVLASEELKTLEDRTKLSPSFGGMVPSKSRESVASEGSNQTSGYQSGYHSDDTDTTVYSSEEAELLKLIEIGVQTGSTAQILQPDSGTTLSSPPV
Description: Inhibition of KDR (unknown origin) incubated for 45 to 120 mins in presence of ATP by Kinase-Glo luminescent assay

Chain of Tyrosine-protein kinase ABL1 (P00519 whole entry): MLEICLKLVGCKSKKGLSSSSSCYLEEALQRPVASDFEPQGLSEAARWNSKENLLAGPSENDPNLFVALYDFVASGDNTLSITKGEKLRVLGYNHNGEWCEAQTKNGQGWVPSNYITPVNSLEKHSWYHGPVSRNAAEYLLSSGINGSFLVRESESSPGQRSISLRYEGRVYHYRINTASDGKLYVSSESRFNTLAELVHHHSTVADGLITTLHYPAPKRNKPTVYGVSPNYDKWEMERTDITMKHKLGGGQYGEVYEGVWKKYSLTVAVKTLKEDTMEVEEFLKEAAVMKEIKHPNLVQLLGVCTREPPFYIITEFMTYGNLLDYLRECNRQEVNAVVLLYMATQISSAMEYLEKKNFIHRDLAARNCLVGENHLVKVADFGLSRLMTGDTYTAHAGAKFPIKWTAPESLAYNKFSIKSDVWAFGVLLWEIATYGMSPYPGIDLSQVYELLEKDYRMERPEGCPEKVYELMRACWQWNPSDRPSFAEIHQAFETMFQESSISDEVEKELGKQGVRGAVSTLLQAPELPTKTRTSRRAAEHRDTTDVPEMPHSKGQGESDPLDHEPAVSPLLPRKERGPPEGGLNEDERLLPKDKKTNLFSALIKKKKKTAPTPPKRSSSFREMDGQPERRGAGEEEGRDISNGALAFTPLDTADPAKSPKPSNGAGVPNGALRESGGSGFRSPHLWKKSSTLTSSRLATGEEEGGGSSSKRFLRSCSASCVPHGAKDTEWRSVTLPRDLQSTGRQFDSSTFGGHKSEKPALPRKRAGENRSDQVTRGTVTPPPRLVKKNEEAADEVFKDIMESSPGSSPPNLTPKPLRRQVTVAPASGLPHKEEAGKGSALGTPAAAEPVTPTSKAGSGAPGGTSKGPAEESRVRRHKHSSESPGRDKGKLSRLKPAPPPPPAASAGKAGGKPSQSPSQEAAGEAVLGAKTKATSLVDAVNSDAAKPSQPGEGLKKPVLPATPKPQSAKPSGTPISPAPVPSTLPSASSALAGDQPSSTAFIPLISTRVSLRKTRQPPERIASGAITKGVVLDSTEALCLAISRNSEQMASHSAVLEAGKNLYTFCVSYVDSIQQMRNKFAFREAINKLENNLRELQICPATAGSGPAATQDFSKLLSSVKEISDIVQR
Chain of Non-receptor tyrosine-protein kinase TYK2 (P29597 whole entry): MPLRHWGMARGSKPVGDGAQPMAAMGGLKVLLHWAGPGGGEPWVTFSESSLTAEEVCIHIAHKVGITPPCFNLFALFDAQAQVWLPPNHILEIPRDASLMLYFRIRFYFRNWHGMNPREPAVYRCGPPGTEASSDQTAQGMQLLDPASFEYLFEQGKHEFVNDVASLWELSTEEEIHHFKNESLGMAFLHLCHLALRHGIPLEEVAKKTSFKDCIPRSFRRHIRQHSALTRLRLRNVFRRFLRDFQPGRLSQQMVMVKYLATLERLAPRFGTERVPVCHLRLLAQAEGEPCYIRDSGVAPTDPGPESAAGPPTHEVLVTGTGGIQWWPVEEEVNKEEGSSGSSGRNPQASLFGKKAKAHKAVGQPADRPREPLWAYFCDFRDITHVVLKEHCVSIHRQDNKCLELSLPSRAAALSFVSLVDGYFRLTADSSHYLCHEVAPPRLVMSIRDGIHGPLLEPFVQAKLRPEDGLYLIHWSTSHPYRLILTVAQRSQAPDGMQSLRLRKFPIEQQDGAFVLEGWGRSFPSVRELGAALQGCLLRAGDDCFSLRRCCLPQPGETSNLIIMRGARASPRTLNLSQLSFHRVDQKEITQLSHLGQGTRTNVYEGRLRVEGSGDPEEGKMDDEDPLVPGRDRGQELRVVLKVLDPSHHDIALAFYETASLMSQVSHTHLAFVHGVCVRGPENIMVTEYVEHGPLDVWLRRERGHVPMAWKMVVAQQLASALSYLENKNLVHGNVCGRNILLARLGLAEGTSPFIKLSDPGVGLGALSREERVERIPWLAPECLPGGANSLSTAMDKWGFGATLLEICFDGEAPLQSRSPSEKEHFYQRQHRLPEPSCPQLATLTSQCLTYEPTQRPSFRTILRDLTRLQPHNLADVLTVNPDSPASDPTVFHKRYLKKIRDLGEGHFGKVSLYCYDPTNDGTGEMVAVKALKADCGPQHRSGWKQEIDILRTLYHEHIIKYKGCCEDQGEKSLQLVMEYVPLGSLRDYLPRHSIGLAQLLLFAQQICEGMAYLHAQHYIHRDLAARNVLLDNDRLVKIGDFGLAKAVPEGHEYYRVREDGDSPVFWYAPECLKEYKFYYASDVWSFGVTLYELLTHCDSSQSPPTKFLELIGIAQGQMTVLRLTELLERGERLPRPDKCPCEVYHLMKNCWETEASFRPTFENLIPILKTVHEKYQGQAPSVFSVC
Chain of Glycogen synthase kinase-3 beta (P49841 whole entry): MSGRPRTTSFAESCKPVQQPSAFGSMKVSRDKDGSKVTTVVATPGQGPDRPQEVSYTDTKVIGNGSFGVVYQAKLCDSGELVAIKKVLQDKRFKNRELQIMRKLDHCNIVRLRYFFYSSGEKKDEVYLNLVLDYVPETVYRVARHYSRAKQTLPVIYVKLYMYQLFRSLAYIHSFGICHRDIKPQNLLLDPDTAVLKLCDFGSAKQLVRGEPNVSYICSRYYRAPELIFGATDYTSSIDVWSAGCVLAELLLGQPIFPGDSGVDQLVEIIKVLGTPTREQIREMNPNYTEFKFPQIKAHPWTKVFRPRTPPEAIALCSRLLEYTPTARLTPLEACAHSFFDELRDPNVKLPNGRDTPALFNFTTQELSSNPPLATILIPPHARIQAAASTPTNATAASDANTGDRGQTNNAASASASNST
Chain of Aurora kinase B (Q96GD4 whole entry): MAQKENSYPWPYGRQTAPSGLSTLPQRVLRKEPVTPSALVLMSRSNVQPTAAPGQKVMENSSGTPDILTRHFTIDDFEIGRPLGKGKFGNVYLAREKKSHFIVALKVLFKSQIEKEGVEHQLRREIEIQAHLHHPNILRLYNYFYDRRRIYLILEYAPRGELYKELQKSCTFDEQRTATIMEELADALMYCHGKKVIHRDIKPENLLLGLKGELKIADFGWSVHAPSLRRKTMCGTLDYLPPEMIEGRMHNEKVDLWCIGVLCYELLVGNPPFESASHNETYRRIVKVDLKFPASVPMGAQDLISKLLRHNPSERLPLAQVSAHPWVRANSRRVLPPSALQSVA

Row | Structure (SMILES) | IC50 [1] [nM] | IC50 [2] [nM] | IC50 [3] [nM] | IC50 [4] [nM] | IC50 (Aurora kinase B) [nM] | IC50 [5] [nM] | IC50 [6] [nM] | solubility [7] [µM] | pKa [8] | IC50 [9] [nM]
1 | Cc1cc(Nc2cc(-c3cnn(CCC#N)c3)c(Cl)cn2)sn1 | 50000 | 50000 |  |  |  |  |  |  |  | 
2 | Cc1cnc(Nc2cnn(C)c2)nc1-c1cnn([C@H](CC#N)C2CCCC2)c1 | 0.99 | 0.98 | 0.98 | 3.4 | 7 | 351 | 395 |  |  | 
3 | Cc1cc(Nc2ncc(C)c(N3CC(CC#N)(N4CCN(C)CC4)C3)n2)sn1 |  | 2.9 |  | 70 | 441 | 21400 |  |  |  | 
4 | Cc1cnc(Nc2ccc(N3CCOCC3)cc2)nc1-c1cnn(CCC#N)c1 | 15 | 2 | 2 | 18 |  |  |  | 13 (≈ 5.06 µg/mL) | 4.2 | 
5 | Cc1cc(Nc2ncc(C)c(N3CCN(CC#N)CC3)n2)sn1 |  |  | 3.4 |  | 1.5 | 467 | 1620 | 7 (≈ 2.31 µg/mL) |  | 41
6 | Cc1cc(Nc2ncc(C)c(N3CC4CCC(C3)N4CC#N)n2)sn1 |  |  | 3.9 |  | 4 | 1310 | 1680 | 11 (≈ 3.91 µg/mL) |  | 221
7 | Cc1cc(Nc2ncc(C)c(N3CC(C4CC4)C3)n2)sn1 |  |  | 3.4 |  | 21 |  |  |  |  | 
8 | Cc1cc(Nc2ncc(C)c(N3CC4CCCC(C3)N4CCC#N)n2)sn1 |  |  | 0.98 |  | 2.5 | 537 | 565 | 11 (≈ 4.22 µg/mL) |  | 109
9 | Cc1cc(Nc2ncc(C)c(N3CC4CCC(C3)N4CCC#N)n2)sn1 |  |  | 0.98 |  | 1.5 |  | 311 |  |  | 96
10 | Cc1cc(Nc2ncc(C)c(N3CC4CCCC(C3)N4CC#N)n2)sn1 |  |  | 5.4 |  | 364 | 2030 | 3240 | 35 (≈ 12.9 µg/mL) |  | 1580
11 | Cc1cnc(Nc2cnn(C)c2)nc1N1CC2CCCC(C1)N2CCC#N | 2 | 3.4 | 3.4 | 11 | 19 |  | 9900 |  |  | 936
12 | Cc1cnc(Nc2cnn(C)c2)nc1N1CC2CCCC(C1)N2CC#N |  |  | 61 |  | 913 | 16800 | 36400 | 7090 (≈ 2500 µg/mL) |  | 7390
13 | Cc1cc(Nc2ncc(C)c(N3CCN(CC#N)[C@@H](C)C3)n2)sn1 |  |  | 1.5 |  | 22 | 228 | 2200 | 16 (≈ 5.5 µg/mL) |  | 30
14 | Cc1cc(Nc2ncc(C)c(N3CC(CC#N)C3)n2)sn1 |  |  | 9 |  | 6 |  |  |  |  | 
15 | Cc1cc(Nc2ncc(C)c(-c3cnn(CCC#N)c3)n2)sn1 | 3 | 1.5 | 2 | 14 | 2.5 | 207 |  |  |  | 
16 | Cc1cc(Nc2ncc(Cl)c(-c3cnn(CCC#N)c3)n2)sn1 | 3 | 1.5 |  |  |  |  |  |  |  | 
17 | Cc1cnc(Nc2cnn(C)c2)nc1N1CC(CC#N)(N2CCN(C)CC2)C1 |  |  | 34 |  | 764 | 50000 |  |  |  | 
18 | Cc1cc(Nc2ncc(C)c(N3CCN(CC#N)C(C)C3)n2)sn1 (stereo not given) |  |  | 3 |  | 3 | 1240 | 1360 | 19 (≈ 6.53 µg/mL) |  | 55
19 | Cc1cc(Nc2ncc(C)c(N3CC(CC#N)(N4CCCC4)C3)n2)sn1 |  |  |  |  | 22 |  |  |  |  | 
20 | Cc1cnc(NC2CCOCC2)nc1-c1cnn(CCC#N)c1 | 50000 | 50000 | 41900 | 50000 |  |  |  | 390 (≈ 122 µg/mL) |  | 
21 | Cc1cc(Nc2ncc(C)c(N3CC(CC#N)(N4CCCCC4)C3)n2)sn1 |  |  | 4.4 |  |  | 8430 |  |  |  | 
22 | Cc1cc(Nc2ncc(C)c(N3CC(CCC#N)C3)n2)sn1 |  |  | 13 |  | 3 | 568 |  |  |  | 
23 | Cc1cc(Nc2ncc(C)c(N3CC(O)(C4CC4)C3)n2)sn1 |  |  | 2.5 |  | 0.97 | 80 |  |  |  | 
24 | Cc1cc(Nc2ncc(C)c(N3CCC(CC#N)CC3)n2)sn1 |  |  |  |  | 1.1 |  |  |  |  | 
25 | Cc1cnc(NCCN2CCOCC2)nc1-c1cnn(CCC#N)c1 | 50000 |  | 19500 | 50000 |  |  |  |  |  | 
26 | Cc1cnc(Nc2ccc(N3CCN(C)CC3)cc2)nc1-c1cnn(CCC#N)c1 | 13 | 2 | 2 | 16 |  |  |  | 33500 (≈ 13500 µg/mL) |  | 
27 | Cc1cc(Nc2ncc(C)c(N3CC(CC#N)(OC4CC5(CC5)C4)C3)n2)sn1 |  |  | 8 |  | 187 | 10300 |  |  |  | 
28 | Cn1cc(Nc2nccc(-c3cnn(CCC#N)c3)n2)cn1 | 538 | 49 | 27 |  |  |  |  |  |  | 
29 | Cc1cnc(Nc2cnn(C)c2)nc1-c1cnn(CCC#N)c1 | 12 | 3.4 |  | 55 |  |  |  | 69 (≈ 21.3 µg/mL) |  | 
30 | Cc1cnc(Nc2ccccc2)nc1-c1cnn(CCC#N)c1 | 50 | 11 | 6 | 143 |  |  |  | 52 (≈ 15.8 µg/mL) |  | 
